Results as given in ChEMBL document CHEMBL5108051, “Improving the Antimicrobial Performance of Amphiphilic Cationic Antimicrobial Peptides Using Glutamic Acid Full-Scan and Positive Charge Compensation Strategies” (J Med Chem, 2022).
The source made the active and inactive calls. No cut-off for these calls is given here. Bridge positions count the residues as written; N and C are the ends. Square brackets hold non-standard residues; d marks the D form. Peptide text beside a SMILES is read from it. * marks the point of attachment. X1 = CC[C@H](C)CCCCC(=O)*; Dab = NCC[C@H](N)C(=O)O

Columns and labels:
[1] = system: Erythrocyte; assay: Hemolytic activity against mouse RBC measured after 1 hrs; format: toxicity, cell-based
[2] = Cytotoxicity against human Glomerular mesenchymal cell assessed as reduction in cell viability at 0 to 128 uM incubated for 1 hr by Resazurin cell viability kit; format: toxicity, cell-based; conditions: glomerular mesenchymal cells, dose 0-128 µM
[3] = system: Staphylococcus aureus; assay: Antimicrobial activity against Staphylococcus aureus ATCC 25923 assessed as fold increase in MIC in presence of NaCl; format: functional
[4] = system: Staphylococcus aureus; assay: Antimicrobial activity against Staphylococcus aureus ATCC 25923 assessed as fold increase in MIC in presence of KCl; format: functional
[5] = system: Staphylococcus aureus; assay: Antimicrobial activity against Staphylococcus aureus ATCC 25923 assessed as fold increase in MIC in presence of MgCl2; format: functional
[6] = system: Cell membrane; assay: Induction of cell membrane disruption in Staphylococcus aureus ATCC 25923 assessed as cell morphological damage measured after 30 mins by […] electron microscope analysis; format: subcellular
[7] = system: Cell membrane; assay: Induction of cytoplasmic membrane depolarization in Staphylococcus aureus ATCC 25923 assessed as increase in fluorescence intensity at 1 to 4 times MIC measured within 1 min by DiSC3-5 dye based fluorescence method; format: subcellular; conditions: DDE = dose-dependent effect
[8] = system: Staphylococcus aureus; assay: Antibiofilm activity against Staphylococcus aureus ATCC 25923 assessed as inhibition of biofilm formation measured at 0.5 to 4 times MIC after 24 hrs by crystal violet staining based assay; format: functional, organism-based; conditions: DDE = dose-dependent effect
[9] = system: Escherichia coli; assay: Antibiofilm activity against Escherichia coli ATCC 25922 assessed as inhibition of biofilm formation at 0.5 times MIC measured after 24 hrs by crystal violet staining based assay; format: functional, organism-based
[10] = system: Escherichia coli; assay: Antibiofilm activity against Escherichia coli ATCC 25922 assessed as inhibition of biofilm formation at 1 times MIC measured after 24 hrs by crystal violet staining based assay; format: functional, organism-based
[11] = system: Escherichia coli; assay: Antibacterial activity against Escherichia coli ATCC 25922 assessed as resistance development measured after 15 passages at sub-MIC concentration by resistance development assay; format: functional, organism-based
[12] = system: Staphylococcus aureus; assay: Antibacterial activity against Staphylococcus aureus ATCC 25923 assessed as fractional inhibitory concentration index in presence of polymyxin B by checkerboard assay; format: functional
[13] = system: Staphylococcus aureus; assay: Antibacterial activity against Staphylococcus aureus ATCC 25923 assessed as fractional inhibitory concentration index in presence of rifampin by checkerboard assay; format: functional
[14] = system: Staphylococcus aureus; assay: Antibacterial activity against rifampin resistant Staphylococcus aureus ATCC 25923 assessed as fractional inhibitory concentration index in presence of polymyxin B by checkerboard assay; format: functional
[15] = system: Staphylococcus aureus; assay: Antibacterial activity against gentamicin resistant Staphylococcus aureus ATCC 25923 assessed as fractional inhibitory concentration index in presence of polymyxin B by checkerboard assay; format: functional
[16] = system: Staphylococcus aureus; assay: Antibacterial activity against gentamicin resistant Staphylococcus aureus ATCC 25923 assessed as fractional inhibitory concentration index in presence of vancomycin by checkerboard assay; format: functional
[17] = system: Escherichia coli; assay: Antibacterial activity against Escherichia coli ATCC 25922 assessed as fractional inhibitory concentration index in presence of polymyxin B by checkerboard assay; format: functional
[18] = system: Escherichia coli; assay: Antibacterial activity against Escherichia coli ATCC 25922 assessed as fractional inhibitory concentration index in presence of rifampin by checkerboard assay; format: functional
[19] = system: Escherichia coli; assay: Antibacterial activity against Escherichia coli ATCC 25922 assessed as fractional inhibitory concentration index in presence of vancomycin by checkerboard assay; format: functional
[20] = system: Escherichia coli; assay: Antibacterial activity against Escherichia coli ATCC 25922 assessed as fractional inhibitory concentration index in presence of gentamicin by checkerboard assay; format: functional
[21] = system: Escherichia coli; assay: Antibacterial activity against rifampin resistant Escherichia coli ATCC 25922 assessed as fractional inhibitory concentration index in presence of polymyxin B by checkerboard assay; format: functional
[22] = system: Escherichia coli; assay: Antibacterial activity against rifampin resistant Escherichia coli ATCC 25922 assessed as fractional inhibitory concentration index in presence of vancomycin by checkerboard assay; format: functional
[23] = system: Escherichia coli; assay: Antibacterial activity against gentamicin resistant Escherichia coli ATCC 25922 assessed as fractional inhibitory concentration index in presence of polymyxin B by checkerboard assay; format: functional
[24] = Acute toxicity in BALB/c mouse assessed as mortality at 40 mg/kg, ip administered as single dose measured for 7 days; format: organism-based; conditions: in vivo, time 7 day, read-out: Activity
[25] = Acute toxicity in BALB/c mouse assessed as rough hairs at 40 to 80 mg/kg, ip administered as single dose measured for 7 days; format: organism-based; conditions: in vivo, 168 h, dose 40-80 mg/kg, time 7 day
[26] = Acute toxicity in BALB/c mouse assessed as abdominal twitching at 40 to 80 mg/kg, ip administered as single dose measured for 7 days; format: organism-based; conditions: in vivo, 168 h, dose 40-80 mg/kg, time 7 day
[27] = Acute toxicity in BALB/c mouse assessed as decrease in motility at 40 to 80 mg/kg, ip administered as single dose measured for 7 days; format: organism-based; conditions: in vivo, 168 h, dose 40-80 mg/kg, time 7 day
[28] = Acute toxicity in BALB/c mouse assessed as pathological changes in heart at 20 to 80 mg/kg, ip administered as single dose measured for 7 days by H and E staining method; format: organism-based; conditions: in vivo, 168 h, dose 20-80 mg/kg, time 7 day
[29] = Acute toxicity in BALB/c mouse assessed as pathological changes in liver at 20 to 80 mg/kg, ip administered as single dose measured for 7 days by H and E staining method; format: organism-based; conditions: in vivo, 168 h, dose 20-80 mg/kg, time 7 day
[30] = Acute toxicity in BALB/c mouse lung assessed as increase in inter-alveolar space at 20 to 80 mg/kg, ip administered as single dose measured for 7 days by H and E staining method; format: organism-based; conditions: in vivo, 168 h, dose 20-80 mg/kg, time 7 day
[31] = Stability of compound in serum measured after 1 to 6 hrs by RP-HPLC analysis; format: ADME, cell-free; conditions: time 1-6 hrs
[32] = system: Escherichia coli; assay: Antimicrobial activity against Escherichia coli ATCC 25922 in presence of NaCl; format: functional, organism-based
[33] = system: Escherichia coli; assay: Antimicrobial activity against Escherichia coli ATCC 25922 in presence of KCl; format: functional, organism-based
[34] = system: Staphylococcus aureus; assay: Disruption of membrane integrity in Staphylococcus aureus ATCC 25923 assessed as increase in nucleic acid leakage by measuring PI-uptake level by microplate reader assay; format: functional, organism-based
[35] = Acute toxicity in BALB/c mouse assessed as pathological changes in lung at 20 to 80 mg/kg, ip administered as single dose measured for 7 days by H and E staining method; format: organism-based; conditions: in vivo, 168 h, dose 20-80 mg/kg, time 7 day
[36] = Acute toxicity in BALB/c mouse assessed as pathological changes in kidney at 20 to 80 mg/kg, ip administered as single dose measured for 7 days by H and E staining method; format: organism-based; conditions: in vivo, 168 h, dose 20-80 mg/kg, time 7 day
[37] = system: Cell membrane; assay: Induction of cytoplasmic membrane depolarization in Escherichia coli ATCC 25922 assessed as increase in fluorescence intensity at 4 times MIC measured within 1 min by DiSC3-5 dye based fluorescence method; format: subcellular
[38] = Acute toxicity in BALB/c mouse assessed as hyper-mobility at 10 to 20 mg/kg, ip administered as single dose measured for 7 days; format: organism-based; conditions: in vivo, 168 h, dose 10-20 mg/kg, time 7 day
[39] = Acute toxicity in BALB/c mouse spleen assessed as inflammatory cell infiltration at 10 to 40 mg/kg, ip administered as single dose measured for 7 days by H and E staining method; format: organism-based; conditions: in vivo, 168 h, dose 10-40 mg/kg, time 7 day

Row | Compound | MHC10 [1] [µM] | CC50 at 1 h [2] [µM] | fold change (FC) [3] | fold change (FC) [5] | Activity [6] | Activity [7] | Activity [8] | Activity [9] | Activity [10] | Activity [11] | fractional inhibitory concentration index (FICI) [12] | fractional inhibitory concentration index (FICI) [13] | fractional inhibitory concentration index (FICI) [14] | fractional inhibitory concentration index (FICI) [15] | fractional inhibitory concentration index (FICI) [16] | fractional inhibitory concentration index (FICI) [18] | fractional inhibitory concentration index (FICI) [19] | fractional inhibitory concentration index (FICI) [20] | Activity [28] | Activity [29] | further results
1 | CC[C@H](C)[C@H](NC(=O)[C@@H]1CCCN1C(=O)[C@H](CC(C)C)NC(=O)[C@@H](N)Cc1ccccc1)C(=O)N[C@H](C(=O)N[C@@H](C)C(=O)N[C@@H](CCCCN)C(=O)N[C@@H](CC(C)C)C(=O)N[C@@H](CC(C)C)C(=O)N[C@@H](CO)C(=O)NCC(=O)N[C@@H](CC(C)C)C(=O)N[C@@H](CC(C)C)C(N)=O)C(C)C (H-FLPIVAKLLSGLL-NH2) | 12.53 | 35.9 | 2 | 2 | Active | Dde | Dde | Active | Active | Active | 0.75 | 0.75 | 0.5 | 0.625 | 0.625 | 1.25 | 0.625 | 1 | Non-Toxic | Non-Toxic | fold change (FC) [4]: 2; fractional inhibitory concentration index (FICI) [17]: 0.625; fractional inhibitory concentration index (FICI) [21]: 0.25; fractional inhibitory concentration index (FICI) [22]: 0.25; fractional inhibitory concentration index (FICI) [23]: 0.75; mortality at 168 h [24]: 40%; Activity [25]: Toxic; Activity [26]: Toxic; Activity [27]: Toxic; Activity [30]: Toxic
2 | CC(C)C[C@H](NC(=O)[C@H](CC(C)C)NC(=O)[C@H](CCC(=O)O)NC(=O)[C@H](CCCCN)NC(=O)[C@H](CC(C)C)NC(=O)[C@H](CC(C)C)NC(=O)[C@H](CCCCN)NC(=O)[C@H](C)NC(=O)[C@@H](NC(=O)[C@H](CCCCN)NC(=O)[C@@H]1CCCN1C(=O)[C@H](CC(C)C)NC(=O)[C@@H](N)Cc1ccccc1)C(C)C)C(N)=O (H-FLPKVAKLLKELL-NH2) | 202 | > 128 | – | – | Active | Dde | Dde | – | – | Active | 0.75 | – | 0.5 | 0.75 | – | 0.625 | 0.375 | 0.5 | Non-Toxic | Non-Toxic | Stability [31]: Stable; Activity [32]: Active; Activity [33]: Active; Activity [34]: Active; fractional inhibitory concentration index (FICI) [17]: 0.375; fractional inhibitory concentration index (FICI) [21]: 0.25; fractional inhibitory concentration index (FICI) [22]: 0.825; fractional inhibitory concentration index (FICI) [23]: 0.75; mortality at 168 h [24]: 20%; Activity [25]: Toxic; Activity [26]: Toxic; Activity [27]: Toxic; Activity [35]: Non-Toxic; Activity [36]: Non-Toxic
3 | CC[C@H](C)CCCCC(=O)N[C@@H](CCN)C(=O)N[C@H](C(=O)N[C@@H](CCN)C(=O)N[C@H]1CCNC(=O)[C@H]([C@@H](C)O)NC(=O)[C@H](CCN)NC(=O)[C@H](CCN)NC(=O)[C@H](CC(C)C)NC(=O)[C@@H](Cc2ccccc2)NC(=O)[C@H](CCN)NC1=O)[C@@H](C)O (X1-[Dab]T[Dab][Dab][Dab][dF]L[Dab][Dab]T; lactam 4-C) | > 256 | – | 4 | 2 | – | – | – | Active | Active | Active | – | 2 | – | – | 1 | 0.1875 | 0.375 | 0.375 | Non-Toxic | Non-Toxic | Stability [31]: Stable; Activity [32]: Active; Activity [33]: Active; Activity [37]: Active; Activity [38]: Toxic; Activity [39]: Non-Toxic
